Assay: pKa of the ionizable lipid (ethanolamine headgroup)
Type: physicochemical
Settings: uncharged at physiological pH

pKa: 6.2 to 6.8
Compound: CCCCC/C=C\C/C=C\CCCCCCCCOC(=O)CCCCCCCN(CCO)CCCCCCCC(=O)OC(CCCCCCCC)CCCCCCCC [PCTA-1]

— patent publication US20250099393A1, “IONIZABLE LIPIDS, LIPID NANOPARTICLES, AND USES THEREOF” (Verily Life Sciences LLC, priority 2022, published 2025)
